Holding throughout (experiment): NCI anticancer screen, dose series, 48 h
Experiment [1] deals with MDA-MB-231 breast.
Experiment [2] deals with HCC-2998 colon.
Experiment [3] concerns MCF7 breast.
The subject of experiment [4] is SF-539 CNS.
For experiment [5], the system named is OVCAR-5 ovarian.
The subject of experiment [6] is UO-31 renal.
Experiment [7] has as its system CAKI-1 renal.
Experiment [8] concerns DU-145 prostate.
Experiment [9] concerns MOLT-4 leukemia.
Experiment [10] relates to OVCAR-3 ovarian.

The structures appear in SMILES notation.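 Cultured in 96-well plates, cells were exposed to test compound for 48 hours across five concentrations. Abbreviation: GI50, concentration required for 50% inhibition of growth. TGI: total growth inhibition.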 Where a SMILES comes first, the peptide text is derived from it. [ ]: non-standard residue; d: D form. 2Nal = N[CH](Cc1ccc2ccccc2c1)C(=O)O

On to `C=C1NC(=O)C(CC(C(=O)C(=O)Nc2c(C)cccc2C(C)(C)C)C(=O)c2ccc3ccccc3c2)C(=O)N1` (centres undefined), for which the TGI in experiment [1], in experiment [2], in experiment [3], in experiment [4], in [5] and in [6] was > 100 µM each time. The TGI in [7], in experiment [8], in experiment [9] and in [10] was > 100 µM in each case.

With `C[C@@H]1CC[C@@H]2[C@@H](C)C[C@H]3[C@@H]4C(C)(C)OC(=O)[C@]4(C)C(=O)[C@@]23C1=O`, the GI50 in experiment [1] was > 100 µM; in [6], > 100 µM; in [10], 75.9 µM. Moreover, the TGI in [1], in experiment [2], in experiment [3], in [4], in experiment [5] and in [6] was > 100 µM in each case. For the same compound, the TGI in [7], in [8], in experiment [9] and in experiment [10] was > 100 µM throughout.

On to `CC(C)(C)c1ccc(O)c(CN(Cc2cc(C(C)(C)C)ccc2O)C2CCCCC2)c1`, for which the TGI in [1] came to 30.4 µM; in experiment [2], 4.48 µM; in experiment [3], 35.5 µM; in experiment [4] it was 31 µM; in [5], 34.1 µM; in experiment [6], 99.9 µM. Moreover, the TGI is > 70.1 µM in [7], 45.4 µM in experiment [8], 49.8 µM in experiment [9] and 34.9 µM in [10].

Regarding `CC(O)CN1c2ccccc2Sc2ccc(Cl)cc21` (centres undefined), the TGI in [1], in experiment [2], in experiment [3], in experiment [4], in [5] and in experiment [6] was > 10 µM in each case. Besides, the TGI in experiment [7], in experiment [8], in experiment [9] and in [10] was > 10 µM each time.

For the compound `CN(O)C(=S)c1ccccc1`, the TGI in experiment [1] is > 24.9 µM; in experiment [2] it was 44 µM; in experiment [3] it was > 100 µM; in [4] it was 63.1 µM; in [5], > 100 µM; in [6], 21.6 µM. Further, the TGI in [7] is 81.3 µM; in experiment [8], > 100 µM; in experiment [9], 5.11 µM; in experiment [10], 34.8 µM.

With `CCCCCCN(C)Cc1ccc(OCCOc2ccc(CN(C)CCCCCC)cc2)cc1`, the GI50 in experiment [1] is 1.22 µM; in experiment [2], 0.491 µM; in [3] it was 1.4 µM; in experiment [4], 1.37 µM; in experiment [5] it was 1.46 µM; in experiment [6] it was 1.04 µM. For the same compound, the GI50 is 1.35 µM in [7], 2.57 µM in experiment [8], 2.48 µM in experiment [9] and 1.36 µM in experiment [10]. Further, the TGI in [1] was 2.84 µM; in [2], 1.81 µM; in [3], 2.79 µM; in experiment [4], 2.92 µM; in experiment [5], 4.03 µM; in experiment [6] it was 5.01 µM. For the same compound, the TGI in [7] is 2.9 µM; in experiment [8], 10.5 µM; in [9], 10.5 µM; in experiment [10] it was 2.91 µM.

For `CCOC(=O)c1cc(-c2ccc(OC)c(OC)c2)[nH]c1N/N=C/c1c(Cl)cccc1Cl`, the GI50 in experiment [1] is 2.9 µM; in experiment [2], 0.668 µM; in experiment [3], 0.415 µM; in experiment [4], 1.44 µM; in experiment [5], 4.56 µM; in [6], 4.32 µM. Besides, the GI50 is 1.59 µM in [7], 2.38 µM in [8], 3.27 µM in experiment [9] and 0.74 µM in [10]. Besides, the TGI in experiment [1] stood at 8.84 µM; in experiment [2], 4.38 µM; in experiment [3], 17.8 µM; in [4], 5.27 µM; in [5], 20.3 µM; in [6], 37.6 µM. Also, the TGI in experiment [7] was 11.4 µM; in experiment [8], 8.5 µM; in experiment [9], > 80.9 µM; in experiment [10], 2.64 µM.

As for `CC(C)C(NC(=O)C(CCCCN)NC(=O)C(Cc1c[nH]c2ccccc12)NC(=O)C(Cc1ccc(O)cc1)NC(=O)C(CS)NC(=O)C(N)Cc1ccc2ccccc2c1)C(=O)NC(CS)C(=O)NC(C(N)=O)C(C)O` (centres undefined) (H-[2Nal]CYWKVCT-NH2; configuration not given here), the TGI in experiment [1] was > 12.5 µM; in [2], > 100 µM; in experiment [3], > 12.5 µM; in experiment [4] it was > 100 µM; in experiment [5], > 12.5 µM; in [6], > 100 µM. Also, the TGI was > 100 µM in [7], > 12.5 µM in [8], > 100 µM in [9] and > 100 µM in experiment [10]. The GI50 in experiment [2], in experiment [4], in experiment [6], in experiment [7], in [9] and in experiment [10] was > 100 µM each time.

`COC(=O)C1=C(C(=O)OC)C2OC1c1cc3ccccc3cc12`: the TGI in experiment [1] turned out to be 33.7 µM; in experiment [2], 23.4 µM; in experiment [3], 59.9 µM; in experiment [4], 12.1 µM; in experiment [5], 11.3 µM; in experiment [6], 2.91 µM. Further, the TGI was 4.26 µM in [7], 21.6 µM in experiment [8], 3.22 µM in experiment [9] and 7.29 µM in experiment [10].

For `N#Cc1c(N)nc(N2CCSCC2)c(C#N)c1-c1ccc(O)cc1`, the GI50 in [1] was 12.4 µM; in experiment [2], 17.2 µM; in experiment [3] it was 14.1 µM; in experiment [4], 18 µM; in [5] it was 16.1 µM; in experiment [6] it was 23.2 µM. The GI50 is 26.7 µM in experiment [7], 27.1 µM in [8], 11.6 µM in experiment [9] and 17.5 µM in experiment [10]. The TGI is 27.5 µM in experiment [1]; 36.6 µM in experiment [2]; 40.2 µM in [3]; 39 µM in experiment [4]; 50 µM in [5]; > 100 µM in [6]. For the same compound, the TGI in experiment [7] was > 100 µM; in experiment [8] it was > 100 µM; in experiment [9] it was 34.5 µM; in experiment [10], 44.8 µM.

(Values after PubChem BioAssay (NCI).)
